This assay has as its target human M4 receptor (Homo sapiens (Human), UniProt P08173). Nature of the assay: Radioligand (tritiated N-methylscopolamine) binding assay, M4. The following applies: Ki against the M4 receptor; membranes from CHO cells expressing human M4; tritiated N-methylscopolamine 1.5 nM; read-out: Ki. Put shortly:
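CHO membranes; 1.5 nM radioligand; 12-point compound dose-response, 10 μM to […]; HEPES/NaCl/MgCl2/EDTA buffer pH 7.4; 90 min, 37 °C. PEI-treated glass fiber filtration, radioactivity counting. Ki from inhibition of binding.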

human M4 receptor, sequence (P08173 whole entry): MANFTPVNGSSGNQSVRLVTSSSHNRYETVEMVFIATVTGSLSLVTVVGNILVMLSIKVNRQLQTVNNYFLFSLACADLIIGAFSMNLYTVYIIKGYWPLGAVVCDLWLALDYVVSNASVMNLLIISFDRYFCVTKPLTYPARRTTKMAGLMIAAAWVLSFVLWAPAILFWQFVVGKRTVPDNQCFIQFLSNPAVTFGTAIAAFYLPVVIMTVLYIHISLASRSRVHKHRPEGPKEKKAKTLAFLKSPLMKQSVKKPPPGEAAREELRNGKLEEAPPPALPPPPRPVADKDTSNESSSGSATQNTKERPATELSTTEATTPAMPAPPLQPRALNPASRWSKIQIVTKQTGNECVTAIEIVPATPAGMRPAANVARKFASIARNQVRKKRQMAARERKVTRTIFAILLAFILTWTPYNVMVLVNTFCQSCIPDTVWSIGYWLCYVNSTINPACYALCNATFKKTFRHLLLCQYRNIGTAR

`C[C@@H]1CN(c2cncc(C#N)c2)CCN1C(=O)NCCC1CCN(Cc2ccccc2)CC1` [4-23, (2R)-N-[2-(1-benzylpiperidin-4-yl)ethyl]-4-(5-cyanopyridin-3-yl)-2-methylpiperazine-1-carboxamide]: the inhibitory constant (Ki) (as a rule, the dissociation constant of the complex between target and ligand, obtained from inhibition or displacement) is 100 to 1000 nM. In the case of `COc1ccc(N2CCN(C(=O)NCCC3CCN(Cc4ccccc4)CC3)[C@H](C)C2)cc1F` [4-70, (2R)-N-[2-(1-benzylpiperidin-4-yl)ethyl]-4-(3-fluoro-4-methoxyphenyl)-2-methylpiperazine-1-carboxamide] it was 10 to 100 nM. Consider `COc1ccc(N2CCC(C(=O)NCCC3CCN(Cc4ccccc4)CC3)CC2)cc1C#N` [10-2, N-[2-(1-benzylpiperidin-4-yl)ethyl]-1-(3-cyano-4-methoxyphenyl)piperidine-4-carboxamide], for which the Ki lay in the range of 100 to 1000 nM. In the case of `C[C@@H]1CN(c2ncc(C(=O)NCC3CC3)cn2)C[C@H](C)N1C(=O)NCCC1CCN(Cc2ccccc2)CC1` [27-5] it was 100 to 1000 nM; in that of `CCNC(=O)c1cc(C)nc(N2CCN(C(=O)NCCC3CCN(Cc4ccccc4)CC3)[C@H](C)C2)n1` [27-19], 100 to 1000 nM; in that of `N#Cc1cccc(N2CCN(C(=O)NCCC3CCN(Cc4ccccc4)CC3)CC2)c1` [8-25, N-[2-(1-benzylpiperidin-4-yl)ethyl]-4-(3-cyanophenyl)piperazine-1-carboxamide], 100 to 1000 nM. The figure for `C[C@@H]1CN(c2ncc(C#N)cn2)C[C@H](C)N1C(=O)NCCC1CCN(CC2CCCS(=O)(=O)C2)CC1` (stereo partly drawn) [21-11, (2R,6S)-4-(5-cyanopyrimidin-2-yl)-N-(2-{1-[(1,1-dioxo-1-thian-3-yl)methyl]piperidin-4-yl}ethyl)-2,6-dimethylpiperazine-1-carboxamide] is 100 to 1000 nM; for `C[C@@H]1CN(c2cc(F)cc(C#N)c2)CCN1C(=O)NC[C@H](O)C1CCN(Cc2ccccc2)CC1` [7-4, (2R)-N-[(2R)-2-(1-benzylpiperidin-4-yl)-2-hydroxyethyl]-4-(3-cyano-5-fluorophenyl)-2-methylpiperazine-1-carboxamide] it is 10 to 100 nM; for `N#Cc1cnc(N2CCN(C(=O)NCCC3CCN(Cc4ccccc4)CC3)[C@@H](CO)C2)nc1` [5-26, (2R)-N-[2-(1-benzylpiperidin-4-yl)ethyl]-4-(5-cyanopyrimidin-2-yl)-2-(hydroxymethyl)piperazine-1-carboxamide] it is 100 to 1000 nM. In the case of `C[C@@H]1CN(c2ncc(F)c(Cl)n2)CCN1C(=O)NCCC1CCN(Cc2ccccc2)CC1` [5-9, (2R)-N-[2-(1-benzylpiperidin-4-yl)ethyl]-4-(4-chloro-5-fluoropyrimidin-2-yl)-2-methylpiperazine-1-carboxamide] it was 100 to 1000 nM; in that of `COc1ccc(N2CCC(C(=O)NCCC3CCN(Cc4ccccc4)CC3)CC2)cc1F` [10-39, N-[2-(1-benzylpiperidin-4-yl)ethyl]-1-(3-fluoro-4-methoxyphenyl)piperidine-4-carboxamide], 10 to 100 nM. As to `O=C(NCCC1CCN(Cc2ccccc2)CC1)N1CCN(c2ncccc2Cl)CC1` [8-47, N-[2-(1-benzylpiperidin-4-yl)ethyl]-4-(3-chloropyridin-2-yl)piperazine-1-carboxamide], the inhibition constant Ki lay within 100 to 1000 nM. In the case of `Cc1c(C(=O)NCCC2CCN(Cc3ccccc3)CC2)cnc2cc(-c3ccccc3)nn12` [17-2, N-[2-(1-benzylpiperidin-4-yl)ethyl]-7-methyl-2-phenylpyrazolo[1,5-a]pyrimidine-6-carboxamide] it was 100 to 1000 nM; in that of “N-{2-[1-(2,2-dimethylpropyl)piperidin-4-yl]ethyl}-1-[4-(trifluoromethoxy)phenyl]piperidine-4-carboxamide [11-27]”, 100 to 1000 nM. In the case of `O=C(OCCC1CCN(Cc2ccccc2)CC1)N1CCN(c2ccc(F)cc2)CC1` [12-3, 2-(1-benzylpiperidin-4-yl)ethyl 4-(4-fluorophenyl)piperazine-1-carboxylate] it was 100 to 1000 nM; in that of `C[C@@H]1CN(c2ccc(C#N)cc2)CCN1C(=O)NCCC1CCN(Cc2ccccc2)CC1` [4-25, (2R)-N-[2-(1-benzylpiperidin-4-yl)ethyl]-4-(4-cyanophenyl)-2-methylpiperazine-1-carboxamide], 10 to 100 nM; in that of `COc1cccc(N2CCC(C(=O)NCCC3CCN(Cc4ccccc4)CC3)CC2)c1` [10-53, N-[2-(1-benzylpiperidin-4-yl)ethyl]-1-(3-methoxyphenyl)piperidine-4-carboxamide], 100 to 1000 nM.

As to `O=C(NCCC1CCN(Cc2ccccc2)CC1)N1CCC(c2cccc(C(F)(F)F)c2)CC1` [8-3, N-[2-(1-benzylpiperidin-4-yl)ethyl]-4-[3-(trifluoromethyl)phenyl]piperidine-1-carboxamide], the Ki was in the range of 10 to 100 nM. For `O=C(OCCC1CCN(Cc2ccccc2)CC1)N1CCN(c2cccc(OC(F)(F)F)c2)CC1` [12-4, 2-(1-benzylpiperidin-4-yl)ethyl 4-[3-(trifluoromethoxy)phenyl]piperazine-1-carboxylate], the inhibition constant (Ki) was 10 to 100 nM.

For the molecule `CNc1nc(N2C[C@@H](C)N(C(=O)NCCC3CCN(Cc4ccccc4)CC3)[C@@H](C)C2)ncc1C#N` [5-21, (2R,6S)-N-[2-(1-benzylpiperidin-4-yl)ethyl]-4-[5-cyano-4-(methylamino)pyrimidin-2-yl]-2,6-dimethylpiperazine-1-carboxamide], the Ki fell in the range of 100 to 1000 nM.

With “4-phenoxy-N-{2-[1-(3-phenylpropyl)piperidin-4-yl]ethyl}benzamide [11-28]”, the inhibition constant Ki lay in the range of 100 to 1000 nM. In the case of `C[C@@H]1CN(c2ncc(C#N)cn2)C[C@H](C)N1C(=O)NCCC1CCN(Cc2ncccn2)CC1` [6-58, (2R,6S)-4-(5-cyanopyrimidin-2-yl)-2,6-dimethyl-N-{2-[1-(pyrimidin-2-ylmethyl)piperidin-4-yl]ethyl}piperazine-1-carboxamide] it was 100 to 1000 nM. Regarding `CS(=O)(=O)c1cccc(N2CCC(C(=O)NCCC3CCN(Cc4ccccc4)CC3)CC2)c1` [10-65, N-[2-(1-benzylpiperidin-4-yl)ethyl]-1-(3-methanesulfonylphenyl)piperidine-4-carboxamide], the Ki was in the range of 100 to 1000 nM. In the case of `Cc1c(C(=O)NCCC2CCN(Cc3ccccc3O)CC2)cnc2cc(-c3ccccc3)nn12` [19-4] it was 100 to 1000 nM; in that of `C[C@@H]1CN(c2ccccn2)CCN1C(=O)NCCC1CCN(Cc2ccccc2)CC1` [4-62, (2R)-N-[2-(1-benzylpiperidin-4-yl)ethyl]-2-methyl-4-(pyridin-2-yl)piperazine-1-carboxamide], 100 to 1000 nM. The figure for `O=C(NCCC1CCN(Cc2ccccc2)CC1)C1(O)CCN(c2ccc(OC(F)(F)F)c(F)c2)CC1` [10-41, N-[2-(1-benzylpiperidin-4-yl)ethyl]-1-[3-fluoro-4-(trifluoromethoxy)phenyl]-4-hydroxypiperidine-4-carboxamide] is 10 to 100 nM; for `O=C(NCCC1CCN(Cc2ccccc2)CC1)N1CCC(c2ccccc2F)CC1` [8-32, N-[2-(1-benzylpiperidin-4-yl)ethyl]-4-(2-fluorophenyl)piperidine-1-carboxamide] it is 100 to 1000 nM.

As for `Cc1nc(-c2ccc(Cl)cc2)sc1C(=O)NCCC1CCN(Cc2ccccc2)CC1` [9-4, N-[2-(1-benzylpiperidin-4-yl)ethyl]-2-(4-chlorophenyl)-4-methyl-1,3-thiazole-5-carboxamide], the Ki lay in the range of 100 to 1000 nM. In the case of `O=C(NCCC1CCN(Cc2ccccc2)CC1)C1CCN(c2ccc(OC(F)(F)F)nc2)CC1` [10-34, N-[2-(1-benzylpiperidin-4-yl)ethyl]-1-[6-(trifluoromethoxy)pyridin-3-yl]piperidine-4-carboxamide], the Ki is 10 to 100 nM. The figure for `Cc1c(C(=O)NCCC2CCN(CC3CCCCC3)CC2)cnc2cc(-c3cccc(C(F)(F)F)c3)nn12` [19-3] is 100 to 1000 nM; for `O=C(NCCC1(CO)CCN(Cc2ccccc2)CC1)C1CCN(c2cccc(OC(F)(F)F)c2)CC1` [9-11, N-{2-[1-benzyl-4-(hydroxymethyl)piperidin-4-yl]ethyl}-1-[3-(trifluoromethoxy)phenyl]piperidine-4-carboxamide] it is 10 to 100 nM; for `C[C@@H]1CN(c2ccc(F)cn2)CCN1C(=O)NCCC1CCN(Cc2ccccc2)CC1` [4-46, (2R)-N-[2-(1-benzylpiperidin-4-yl)ethyl]-4-(5-fluoropyridin-2-yl)-2-methylpiperazine-1-carboxamide] it is 10 to 100 nM. The figure for `CN(C(=O)C1CCN(c2ccc(OC(F)(F)F)cc2)CC1)C1CCN(C2CCN(Cc3ccccc3)CC2)C1` (centres unmarked) [9-23, N-[1-(1-benzylpiperidin-4-yl)pyrrolidin-3-yl]-N-methyl-1-[4-(trifluoromethoxy)phenyl]piperidine-4-carboxamide] is 10 to 100 nM. The figure for `O=C(NCCC1CCN(Cc2ccccc2)CC1)C1CCN(c2ccccc2)CC1` [10-3, N-[2-(1-benzylpiperidin-4-yl)ethyl]-1-phenylpiperidine-4-carboxamide] is 100 to 1000 nM; for `O=C(NCCC1CCN(Cc2ccccc2)CC1)C1(O)CCN(c2cc(F)ccc2F)CC1` [10-64, N-[2-(1-benzylpiperidin-4-yl)ethyl]-1-(2,5-difluorophenyl)-4-hydroxypiperidine-4-carboxamide] it is 100 to 1000 nM; for `C[C@@H]1CN(c2ccc(F)cc2)CCN1C(=O)NCCC1CCN(Cc2ccccc2)CC1` [4-30, (2R)-N-[2-(1-benzylpiperidin-4-yl)ethyl]-4-(4-fluorophenyl)-2-methylpiperazine-1-carboxamide] it is 10 to 100 nM. As for `Cc1ccc(N2CCN(C(=O)NCCC3CCN(Cc4ccccc4)CC3)CC2)c(CO)c1` [8-43, N-[2-(1-benzylpiperidin-4-yl)ethyl]-4-[2-(hydroxymethyl)-4-methylphenyl]piperazine-1-carboxamide], the Ki fell in the range of 100 to 1000 nM. The figure for `Cc1c(C(=O)NCCC2CCN(Cc3ccccc3)CC2)cnc2cc(-c3ccc(C#N)c(F)c3)nn12` [18-12] is 10 to 100 nM.
